Laboratory results as given in PMC10057480, “Expanding the Library of 1,2,4-Oxadiazole Derivatives: Discovery of New Farnesoid X Receptor (FXR) Antagonists/Pregnane X Receptor (PXR) Agonists” (Molecules, 2023).
Values joined by “and” are separate entries in the source; they are usually repeats but may differ in a detail not shown here. Equal values may be shown once.

How the values were obtained:
Format in all cases: cell-based
FXR = target: T1, FXR (Homo sapiens, UniProt Q96RI1); test: FXR luciferase reporter transactivation assay (antagonism) on HepG2 cells; settings: HepG2 transactivation; compounds at 50 μM; percent inhibition of transactivation set at 100%; mean ± SD, at least three experiments
T1 construct: expressed in transfected cells; host or cells: HepG2
T1 sequence (Q96RI1 1-486): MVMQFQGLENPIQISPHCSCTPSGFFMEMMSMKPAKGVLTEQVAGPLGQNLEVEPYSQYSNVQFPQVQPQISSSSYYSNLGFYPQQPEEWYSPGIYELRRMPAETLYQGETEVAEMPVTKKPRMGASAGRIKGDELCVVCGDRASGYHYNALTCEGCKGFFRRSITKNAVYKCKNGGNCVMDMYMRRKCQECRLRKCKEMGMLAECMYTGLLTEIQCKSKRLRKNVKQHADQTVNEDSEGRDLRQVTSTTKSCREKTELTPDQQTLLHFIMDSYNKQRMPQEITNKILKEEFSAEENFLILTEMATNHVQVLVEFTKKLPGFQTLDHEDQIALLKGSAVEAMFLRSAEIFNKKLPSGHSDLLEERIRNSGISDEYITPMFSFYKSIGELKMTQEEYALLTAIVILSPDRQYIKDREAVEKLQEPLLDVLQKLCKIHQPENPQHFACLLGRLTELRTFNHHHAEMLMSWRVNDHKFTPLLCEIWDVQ
Experimental: The antagonistic activity on FXR was investigated using HepG2 cells transfected with 100 ng of pSG5-FXR and pSG5-RXR, 200 ng of the reporter vector p(hsp27)-TK-LUC containing the FXR response element, and 100 ng of the pGL4.70 vector encoding the human Renilla gene used as a transfection control. […] In another experimental setting, HepG2 cells were transfected using 100 ng of pSG5-PXR, 100 ng of pSG5-RXR, and 100 ng of pGL4.70, along with the reporter vector pGL3(henance)PXRE. At 24 h post-transfection, cells were stimulated with rifaximin 10 μM (as a positive control) or compounds 2–11 (10 μM). The specificity of compounds 5 and 11 versus FXR and PXR was tested using HepG2 cells transiently transfected with 200 ng of the reporter vector p(UAS)5XTKLuc, 100 ng of a vector containing the ligand binding domain of LXRα or LXRβand 100 ng of pGL4.70, a vector encoding the human Renilla gene. At 24 h post-transfection, cells were stimulated for 18 h with GW3965 (5 μM), compounds 5 and 11 (10 μM), and the combination of GW3965 plus 5 or 11 (50 μM). Cellular lysate was assayed for luciferase and Renilla activities after 18 h using the Dual-Luciferase Reporter assay system (E1980, Promega, Madison, WI, USA). The activity of luciferase was measured using the Glomax 20/20 luminometer (Promega, Madison, WI, USA) and normalized with Renilla activities.

HepG2 cells = test: Toxicity on HepG2 cells seen in the FXR transactivation assay; settings: at 50 μM
Experimental: (§1) The antagonistic activity on FXR was investigated using HepG2 cells transfected with 100 ng of pSG5-FXR and pSG5-RXR, 200 ng of the reporter vector p(hsp27)-TK-LUC containing the FXR response element, and 100 ng of the pGL4.70 vector encoding the human Renilla gene used as a transfection control. Cells were stimulated with the agonist 6-ECDCA (10 µM) alone or in combination with compounds 2–11 after 24 h. In another experimental setting, HepG2 cells were transfected using 100 ng of pSG5-PXR, 100 ng of pSG5-RXR, and 100 ng of pGL4.70, along with the reporter vector pGL3(henance)PXRE. At 24 h post-transfection, cells were stimulated with rifaximin 10 μM (as a positive control) or compounds 2–11 (10 μM). The specificity of compounds 5 and 11 versus FXR and PXR was tested using HepG2 cells transiently transfected with 200 ng of the reporter vector p(UAS)5XTKLuc, 100 ng of a vector containing the ligand binding domain of LXRα or LXRβand 100 ng of pGL4.70, a vector encoding the human Renilla gene. At 24 h post-transfection, cells were stimulated for 18 h with GW3965 (5 μM), compounds 5 and 11 (10 μM), and the combination of GW3965 plus 5 or 11 (50 μM). Cellular lysate was assayed for luciferase and Renilla activities after 18 h using the Dual-Luciferase Reporter assay system (E1980, Promega, Madison, WI, USA). The activity of luciferase was measured using the Glomax 20/20 luminometer (Promega, Madison, WI, USA) and normalized with Renilla activities.

PXR = target: T2, PXR (Homo sapiens, UniProt O75469); test: PXR luciferase reporter transactivation assay (agonism) on HepG2 cells; settings: compound 10 μM, maximal transactivation compared to Rifaximin 10 μM, mean ± SD, at least three experiments
T2 construct: expressed in transfected cells; host or cells: HepG2
T2 sequence (O75469 1-434): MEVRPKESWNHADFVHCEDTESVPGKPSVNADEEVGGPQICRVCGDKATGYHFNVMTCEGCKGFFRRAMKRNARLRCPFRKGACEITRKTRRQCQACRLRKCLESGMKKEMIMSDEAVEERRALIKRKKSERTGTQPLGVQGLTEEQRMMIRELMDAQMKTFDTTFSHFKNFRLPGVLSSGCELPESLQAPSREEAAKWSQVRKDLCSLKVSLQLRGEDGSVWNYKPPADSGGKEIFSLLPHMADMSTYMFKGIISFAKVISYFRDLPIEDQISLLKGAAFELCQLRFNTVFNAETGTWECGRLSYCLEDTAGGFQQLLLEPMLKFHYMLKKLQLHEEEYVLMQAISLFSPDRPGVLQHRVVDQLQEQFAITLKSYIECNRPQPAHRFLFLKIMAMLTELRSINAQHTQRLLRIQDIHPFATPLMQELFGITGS
T2 sequence (P19793 1-462 partner): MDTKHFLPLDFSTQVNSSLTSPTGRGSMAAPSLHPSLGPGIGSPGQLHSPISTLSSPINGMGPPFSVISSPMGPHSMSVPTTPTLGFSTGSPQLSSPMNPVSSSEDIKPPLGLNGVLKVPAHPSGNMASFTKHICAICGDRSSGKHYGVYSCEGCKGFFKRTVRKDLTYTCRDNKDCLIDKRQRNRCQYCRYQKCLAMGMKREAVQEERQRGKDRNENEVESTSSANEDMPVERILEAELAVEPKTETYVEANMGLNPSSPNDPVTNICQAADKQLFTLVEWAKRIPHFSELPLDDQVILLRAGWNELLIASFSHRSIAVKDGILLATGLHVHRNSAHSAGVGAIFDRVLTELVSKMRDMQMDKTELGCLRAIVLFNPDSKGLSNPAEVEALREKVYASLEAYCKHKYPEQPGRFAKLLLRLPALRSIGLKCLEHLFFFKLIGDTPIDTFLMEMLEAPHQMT
Experimental: as §1

[1] = test system: Human-CaCo2 cells stimulated with TNFα; test: qPCR of PXR and inflammatory cytokines in TNFα-stimulated CaCo2 cells; settings: TNFα 100 ng/mL plus compound 10 μM
Experimental: HepG2 and CaCo2 cell lines, obtained from ATCC, were routinely cultured in Eagle’s MEM and high-glucose DMEM, respectively, supplemented with 10% FBS, 1% glutamine, and penicillin/streptomycin. For in vitro experiments, HepG2 (2 × 106) cells were stimulated with 6-ECDCA at a concentration of 10 µM alone or in combination with compound 5 or 11, and CaCo2 cells were exposed to TNFα (100 ng/mL) alone or in combination with rifaximin, compound 5, or 11.
Total RNA was isolated from the HepG2 and CaCo2 cell lines using TRI reagent (Zymo Research) and Direct-zol™ RNA MicroPrep w/Zymo-Spin™ IIC Columns (Zymo Research, Irvine, CA, USA). After purification from genomic DNA using DNase I (Thermo Fisher Scientific, Waltham, MA, USA), 2 μg of RNA from each sample was reverse transcribed using Kit FastGene Scriptase Basic (Nippon Genetics, Mariaweilerstraße, Düren, Germany) in 20-μL of reaction volume, and 50 ng of cDNA was amplified in a 20-μL solution containing 200 nM of each primer and 10 μL of PowerUp™ SYBR™ Green Master Mix (Thermo Fisher Scientific, Waltham, MA, USA) using a Quantstudio 3 system (Applied Biosystems, Foster City, CA, USA). The relative mRNA expression was calculated according to the ΔCt method. The primer used were as follows (forward and reverse): hGapdh (for […]; rev […]), hBsep (for […]; rev […]), hOstα (for […]; rev […]), hNtcp (for […]; rev […]), hPxr (for GCAAGGGCTTTTTCAGGAG; rev GGGTCTTCCGGGTGATCT), hIl-8 (for […]; rev […]), hIl-1β (for […]; rev […]).

Row | SMILES | FXR Antagonism Eff (%) (FXR) | Toxicity on HepG2 cells (HepG2 cells) | PXR Agonism Eff (%) (PXR) | Effect on proinflammatory factors caused by TNFα stimulation [1]
1 | CCN1CCC(c2nc(-c3ccc4ccccc4c3)no2)CC1 [Compound 2, 5-(1-Ethylpiperidin-4-yl)-3-(naphthalen-2-yl)-1,2,4-oxadiazole] | Toxic | toxic | 2 ± 0.3% | 
2 | CCCN1CCC(c2nc(-c3ccc4ccccc4c3)no2)CC1 [Compound 3, 3-(Naphthalen-2-yl)-5-(1-propylpiperidin-4-yl)-1,2,4-oxadiazole] | Toxic | toxic | 15 ± 0.5% | 
3 | CCCCN1CCC(c2nc(-c3ccc4ccccc4c3)no2)CC1 [Compound 4, 5-(1-Butylpiperidin-4-yl)-3-(naphthalen-2-yl)-1,2,4-oxadiazole] | 38 ± 5% |  | 68% and 68 ± 8% | 
4 | CCCCCCN1CCC(c2nc(-c3ccc4ccccc4c3)no2)CC1 [Compound 6, 5-(1-Hexylpiperidin-4-yl)-3-(naphthalen-2-yl)-1,2,4-oxadiazole] |  |  | 23 ± 0.7% | 
5 | CCCCCCCN1CCC(c2nc(-c3ccc4ccccc4c3)no2)CC1 [Compound 7, 5-(1-Heptylpiperidin-4-yl)-3-(naphthalen-2-yl)-1,2,4-oxadiazole] | Toxic | toxic | 28 ± 3% | 
6 | CC(C)N1CCC(c2nc(-c3ccc4ccccc4c3)no2)CC1 [Compound 8, 5-(1-Isopropylpiperidin-4-yl)-3-(naphthalen-2-yl)-1,2,4-oxadiazole] |  |  | 50% and 50 ± 7% | 
7 | CCC(C)N1CCC(c2nc(-c3ccc4ccccc4c3)no2)CC1 (stereo not shown) [Compound 9, 5-(1-(Sec-butyl)piperidin-4-yl)-3-(naphthalen-2-yl)-1,2,4-oxadiazole] | Toxic | toxic | 3 ± 0.2% | 
8 | OCc1cccc(CN2CCC(c3nc(-c4ccc5ccccc5c4)no3)CC2)c1 [Compound 10, 5-[1-(3-(Hydroxymethyl)benzyl)piperidin-4-yl]-3-(naphthalen-2-yl)-1,2,4-oxadiazole] | 66% and 66 ± 13% |  | 20 ± 3% | 
9 | CO[C@H]1/C=C/O[C@@]2(C)Oc3c(C)c(O)c4c(O)c(c5c(nc6cc(C)ccn65)c4c3C2=O)NC(=O)/C(C)=C\C=C\[C@H](C)[C@H](O)[C@@H](C)[C@@H](O)[C@@H](C)[C@H](OC(C)=O)[C@@H]1C [rifaximin, reference compound] |  |  |  | reduced changes in the production of proinflammatory factors
